From patent US20220110933A1, “METHODS OF TREATING DISEASE WITH MAGL INHIBITORS” (H. Lundbeck A/S, priority 2019, published 2022)
One block for each compound: values may come before it.

Experiments:
[1] = test system: L-DOPA induced dyskinesia in MPTP-lesioned cynomolgus macaques; experiment: MPTP-lesioned macaque model of L-DOPA induced dyskinesia (LID); format: in vivo, cynomolgus macaque; settings: for reduction in median peak-dose dyskinesia after L-DOPA administration: single dose 2 h before L-DOPA, 0-2 h post L-DOPA
Method: The study utilized 8 female MPTP-lesioned cynomolgus macaques (10-15 years in age) that have received chronic repeat-treatment with L-DOPA and manifest stable and reproducible dyskinesia, of choreic and dystonic nature, in response to subsequent L-DOPA treatments.
A MGLL inhibitor, Compound 21, (3, 10 and 30 mg/kg), reference drug amantadine (10 mg/kg) and vehicle were administered by oral gavage as a single dose 2 h before a high-dose of L-DOPA (administered as Madopar™). The L-DOPA dose individualized for each animal is one that induced robust and reproducible anti-parkinsonian effects lasting ˜3-4 h but compromised by disabling dyskinesia. The animals were video-recorded for a 6 h period following L-DOPA administration and the effects of each treatment on dyskinesia, parkinsonian disability, duration and quality of anti-parkinsonian benefit (on-time) were scored blinded by a neurologist. Dyskinesia was scored using the non-human primate dyskinesia rating scale (NHPDysRS) and disability was scored using the monkey parkinsonian disability rating scale (mPDRS).
The study design was an ascending dose crossover with all animals receiving each treatment in the order of vehicle, 10 mg/kg amantadine, 3 mg/kg Compound 21, 10 mg/kg Compound 21, and 30 mg/kg Compound 21.

[2] = Plasma exposure and half-life in MPTP-lesioned macaques; format: in vivo, cynomolgus macaque; settings: cynomolgus monkey

SMILES: NC12CC3CC(CC(C3)C1)C2 [Amantadine, amantadine, reference compound]
reduction in median peak-dose dyskinesia after L-DOPA administration ([1]; 10 mg/kg p.o.): 29%
parkinsonian disability ([1]; 10 mg/kg p.o., 0-2 h post L-DOPA administration totals, P<0.05): mild and statistically significant worsening
concentration at 2 h ([2]; plasma, oral, 10 mg/kg p.o., 2 h post-dose): 1300 ng/mL
concentration at 8 h ([2]; plasma, oral, 10 mg/kg p.o., 8 h post-dose): 1500 ng/mL

half-life ([2]; in vivo): 16 to 34 h
SMILES: O=C(OC(C(F)(F)F)C(F)(F)F)N1CCN(Cc2ccc(Cl)cc2N2CC3CCC(C2)O3)CC1 [Compound 21, 1,1,1,3,3,3-Hexafluoropropan-2-yl 4-(2-(8-oxa-3-azabicyclo[3.2.1]octan-3-yl)-4-chlorobenzyl)piperazine-1-carboxylate]
dyskinesia in the 1-2 h post L-DOPA interval ([1]; 10 mg/kg p.o.): significant reduction
reduction in median peak-dose dyskinesia after L-DOPA administration ([1]; 10 mg/kg p.o.): 45%
reduction in median peak-dose dyskinesia after L-DOPA administration ([1]; 30 mg/kg p.o.): 35%
statistical significance of reduction in 0-2 hour total dyskinesia scores ([1]; 3, 10 and 30 mg/kg p.o.): did not reach statistical significance
median peak dose dyskinesia induced by L-DOPA administration ([1]; 3, 10 and 30 mg/kg p.o., 0-2 h post L-DOPA totals): dose-dependently reduced
anti-dyskinetic effects (overall) ([1]; MPTP-lesioned macaque model of L-DOPA induced dyskinesia): robust anti-dyskinetic effects
benefit on dystonia and chorea ([1]; data not shown): evidence of benefit on both dystonia and chorea
therapeutic effects on median dyskinesia ratings compared with amantadine ([1]; versus amantadine 10 mg/kg): of greater magnitude
